According to ChEMBL document CHEMBL1697821, “Development of a phospholipidosis database and predictive quantitative structure-activity relationship (QSAR) models” (Toxicol Mech Methods, 2008):

System: Phospholipidosis
Test: Literature-mined public compounds from Kruhlak et al phospholipidosis modelling dataset

Compound	Phospholipidosis
C[N+](C)(C)CCCCCCCCCC[N+](C)(C)C.[Br-].[Br-] [DECAMETHONIUM BROMIDE]	Negative: based on the absence of positive reported data from WMDD
CN/C(=N/CCSCc1nc[nH]c1C)NC#N [CIMETIDINE]	Negative: confirmed by electron microscopy
OC(CN1CCCCC1)c1ccc(C=C2c3ccccc3-c3ccccc32)cc1 (stereo not given)	Positive: strong inducer confirmed by electron microscopy
CCC(=O)O[C@](Cc1ccccc1)(c1ccccc1)[C@H](C)CN(C)C [PROPOXYPHENE]	Negative: based on the absence of positive reported data from WMDD
CCC(=O)c1ccc2c(c1)N(CC(C)N(C)C)c1ccccc1S2 (stereo not given) [PROPIOMAZINE]	Negative: based on the absence of positive reported data from WMDD
CN1[C@@H](CC(=O)c2ccccc2)CCC[C@H]1C[C@H](O)c1ccccc1 [LOBELINE]	Negative: based on the absence of positive reported data from WMDD
CC(O)C(=O)O (stereo not given) [LACTIC ACID]	Negative: based on the absence of positive reported data from WMDD
CCCC(C)C1(CC)C(=O)NC(=S)NC1=O (stereo not given) [THIOPENTAL]	Negative: based on the absence of positive reported data from WMDD
NC[C@H]1O[C@H](O[C@H]2[C@H](O)[C@@H](O[C@H]3O[C@H](CO)[C@@H](O)[C@H](N)[C@H]3O)[C@H](N)C[C@@H]2N)[C@H](N)[C@@H](O)[C@@H]1O [BEKANAMYCIN]	Negative: based on the absence of positive reported data from WMDD
POLYSORBATE 80	Negative: based on the absence of positive reported data from WMDD
COc1cc(CC2c3c(cc(OC)c(OC)c3OC)CC[N+]2(C)CCCOC(=O)CCC(=O)OCCC[N+]2(C)CCc3cc(OC)c(OC)c(OC)c3C2Cc2cc(OC)c(OC)c(OC)c2)cc(OC)c1OC.[Cl-].[Cl-] (stereo not given) [DOXACURIUM CHLORIDE]	Negative: based on the absence of positive reported data from WMDD
CC(N)Cc1ccccc1 (stereo not given) [AMPHETAMINE]	Negative: based on the absence of positive reported data from WMDD
O=C1CSC2(CCN(CCCN3c4ccccc4Sc4ccc(Cl)cc43)CC2)N1 [SPICLOMAZINE]	Negative: based on the absence of positive reported data from WMDD
O=C(CCCCC(=O)Nc1c(I)cc(I)c(C(=O)O)c1I)Nc1c(I)cc(I)c(C(=O)O)c1I [IODIPAMIDE]	Negative: based on the absence of positive reported data from WMDD
CN1CCN(CCCCN2C(=O)CN(/N=C/c3ccc(-c4ccc(Cl)cc4)o3)C2=O)CC1.Cl.Cl [AZIMILIDE DIHYDROCHLORIDE]	Positive: weak inducer based on presence of foamy macrophages and cytoplasmic vacuolations
C[C@]12CC[C@H]3[C@@H](CCC4=CC(=O)CC[C@@H]43)[C@@H]1CC[C@@H]2O [NANDROLONE]	Negative: based on the absence of positive reported data from WMDD
CN1CCN(C2=Nc3cc(Cl)ccc3Nc3ccccc32)CC1 [CLOZAPINE]	Positive: strong inducer confirmed by electron microscopy
CNCCC(Oc1ccc(C(F)(F)F)cc1)c1ccccc1 (stereo not given) [FLUOXETINE]	Positive: strong inducer confirmed by electron microscopy
CC[C@H]1OC(=O)[C@H](C)[C@@H](O[C@H]2C[C@@](C)(OC)[C@@H](O)[C@H](C)O2)[C@H](C)[C@@H](O[C@@H]2O[C@H](C)C[C@H](N(C)C)[C@H]2O)[C@](C)(O)C[C@@H](C)CN(C)[C@H](C)[C@@H](O)[C@]1(C)O [AZITHROMYCIN]	Positive: weak inducer based on presence of foamy macrophages and cytoplasmic vacuolations
COCCc1ccc(OCC(O)CNC(C)C)cc1 (stereo not given) [METOPROLOL]	Negative: based on the absence of positive reported data from WMDD

Compound	Phospholipidosis
CCOC(=O)[C@H](CCc1ccccc1)N[C@@H](C)C(=O)N1Cc2cc(OC)c(OC)cc2C[C@H]1C(=O)O [MOEXIPRIL]	Negative: based on the absence of positive reported data from WMDD
CCC1(C2=CCCCC2)C(=O)NC(=O)NC1=O [CYCLOBARBITAL]	Negative: based on the absence of positive reported data from WMDD
C=C1/C(=C\C=C2/CCC[C@]3(C)[C@@H]([C@H](C)CCCC(C)(C)O)CC[C@@H]23)C[C@@H](O)C[C@@H]1O [CALCITRIOL]	Negative: based on the absence of positive reported data from WMDD
CCC(=O)Oc1ccc2c(c1)CC[C@@H]1[C@@H]2CC[C@]2(C)[C@@H](OC(=O)CC)CC[C@@H]12 [ESTRADIOL DIPROPIONATE]	Negative: based on the absence of positive reported data from WMDD
OCc1ccccc1 [BENZYL ALCOHOL]	Negative: based on the absence of positive reported data from WMDD
CO[C@@]1(NC(=O)C2SC(=C(C(N)=O)C(=O)O)S2)C(=O)N2C(C(=O)O)=C(CSc3nnnn3C)CS[C@@H]21 (stereo not given in full) [CEFOTETAN]	Negative: based on the absence of positive reported data from WMDD
CCN(CC)C(C)CN1c2ccccc2Sc2ccccc21 (stereo not given) [ETHOPROPAZINE]	Negative: based on the absence of positive reported data from WMDD
CCC[C@H](N[C@@H](C)C(=O)N1[C@H](C(=O)O)C[C@@H]2CCCC[C@@H]21)C(=O)OCC [PERINDOPRIL]	Negative: based on the absence of positive reported data from WMDD
O=c1[nH]c(=O)n([C@H]2C[C@H](O)[C@@H](CO)O2)cc1F [FLOXURIDINE]	Negative: based on the absence of positive reported data from WMDD
CC(=O)NCc1c(I)c(NC(C)=O)c(I)c(C(=O)O)c1I [IODAMIDE]	Negative: based on the absence of positive reported data from WMDD
CN1[C@@H]2CC[C@H]1C[C@@H](OC(c1ccccc1)c1ccccc1)C2 [BENZTROPINE]	Negative: based on the absence of positive reported data from WMDD
CN(C)[C@@H]1C(O)=C(C(N)=O)C(=O)[C@@]2(O)C(O)=C3C(=O)c4c(O)cccc4[C@@](C)(O)[C@H]3C[C@@H]12 [TETRACYCLINE]	Negative: confirmed by electron microscopy
CC[C@@H]1C(=O)OC[C@@H]1Cc1cncn1C [PILOCARPINE]	Negative: based on the absence of positive reported data from WMDD
c1ccc(CN(CC2=NCCN2)c2ccccc2)cc1 [ANTAZOLINE]	Negative: based on the absence of positive reported data from WMDD
O[C@H]1[C@H](O)[C@@H](O)[C@H](O)[C@@H](O)[C@H]1O [INOSITOL]	Negative: based on the absence of positive reported data from WMDD
CCC1(CC)C(=O)NCC(C)C1=O (stereo not given) [METHYPRYLON]	Negative: based on the absence of positive reported data from WMDD
CC1(C)OCC(C(CS(=O)(=O)c2ccc(Oc3cccc(OC(F)(F)F)c3)cc2)NC=O)O1 (stereo not given)	Negative: confirmed by electron microscopy
CCC(COC(=O)c1cc(OC)c(OC)c(OC)c1)(c1ccccc1)N(C)C (stereo not given) [TRIMEBUTINE]	Negative: based on the absence of positive reported data from WMDD
CN(C)C(=N)N=C(N)N [METFORMIN]	Negative: confirmed by electron microscopy
C[N+](C)(CCOc1ccccc1)Cc1ccccc1.O=C([O-])c1cc2ccccc2cc1O [BEPHENIUM HYDROXYNAPHTHOATE]	Negative: based on the absence of positive reported data from WMDD
